Data on 18 compounds can be found in patent US20250382305A1 (PTC THERAPEUTICS, INC., priority 2022, published 2025).

The test system of test [1] is Total ATXN3 (tATXN3) protein. The experiment in a line: Endogenous Total ATXN3 (tATXN3) Protein Assay (MSD immunoassay of cell lysates). The test is classed as cell-based. The settings on record: average IC50, total ATXN3 protein in cell lysate after 48 h with compound (Table 1). The procedure:
Endogenous Total ATXN3 (tATXN3) Protein Assay
Meso Scale Discovery (MSD) 96-well or 384-well plates were coated overnight at 4° C. with Ataxin 3 mouse monoclonal antibody (Invitrogen, MA3-082) at a concentration of 0.5 μg/mL in PBS (30 μL per well). Plates were then washed three times with 300 μL wash buffer (0.05% TWEEN®-20, polyethylene glycol sorbitan monolaurate, in PBS) and blocked (Meso Scale Diagnostics, R93BA-1; 5% BSA in PBS) for 2 h at RT with rotational shaking and then washed three times with wash buffer.
(§1) Test compounds were serially diluted 3.16-fold in 100% DMSO to generate a 7-point concentration curve. Aliquots of 0.5 μL of diluted compounds were transferred to a 96-well flat bottom plate by a liquid handler. An aliquot of 0.5 μL DMSO was also transferred to separate wells and used as controls. Duplicate samples were set up for each compound concentration and for the DMSO control.
Cells were thawed and incubated in cell culture media (DMEM, 10% FBS, and 1% antibiotic cocktail) for 72 h. Cells were trypsinized, counted, and re-suspended to a concentration of 100,000 cells/mL in cell culture media. A 100 μL aliquot of the cell suspensions were plated at 10,000 cells per well in the compound containing 96 well microtiter plate and incubated for in a cell culture incubator (37° C., 5% CO2, 100% relative humidity). After 48 h, the medium was removed and 50-100 μL of lysis buffer (Meso Scale Diagnostics, R60TX-2) containing 1× halt protease inhibitor cocktail of (Thermo Scientific, Halt™ Protease Inhibitor Cocktail, 78430) per well was added to cells to provide a “cell lysate”. The plate was placed on a shaker at 4° C. for 30 minutes, then stored at −80° C.
Cell lysate samples (25 μL) were transferred to the antibody-coated MSD plate and incubated overnight at 4° C. After removal of the lysates, the plate was washed three times with wash buffer, and 25 μL of Ataxin 3 recombinant rabbit monoclonal antibody (Invitrogen, #702788) secondary antibody (diluted to 0.25 μg/mL in 0.05% TWEEN®-20 in blocking buffer) was added to each well and incubated with shaking for 1-2 h at room temperature. Following incubation with the secondary antibody, the wells were rinsed with wash buffer and then 25 μL of Anti Rabbit Antibody Goat SULFO-TAG Labeled (Meso Scale Diagnostics, R32AB-1) detecting antibody (diluted to […] in 0.05% TWEEN®-20 in blocking buffer) was added to each well and incubated with shaking for 1 h at room temperature. After rinsing three times with wash buffer, 150 μL of Read Buffer T with surfactant (tris-based buffer containing tripropylamine, Meso Scale Diagnostics, R92TC-1) were added to each empty well, and the plate was imaged on a SI 6000 imager (MSD) according to manufacturers' instructions provided for 96- or 384-well plates.
(§2) An average IC50>1 μM is indicated by one star (*), between >0.3 μM and ≤1 μM is indicated by two stars (**), between >0.03 μM and ≤0.3 μM is indicated by three stars (***), and ≤0.03 μM is indicated by four stars (****).

In test [2] the test system is ATXN3 pre-mRNA. Briefly: RT-qPCR Assay to Quantify Exon 4 Skipping in ATXN3 pre-mRNA in Cells. It is filed as cell-based. Particulars: percent exon 4 skipping in ATXN3 pre-mRNA, RT-qPCR of cell lysates; average IC50. The procedure:
RT-qPCR Assay to Quantify Exon 4 Skipping in ATXN3 pre-mRNA in Cells
as §1
Cells were thawed and incubated in cell culture media (DMEM, 10% FBS, and 1% antibiotic cocktail) for 72 h. Cells were trypsinized, counted, and re-suspended to a concentration of 100,000 cells/mL in cell culture media. A 100 μL aliquot of the cell suspensions were plated at 10,000 cells per well in the compound containing 96 well microtiter plate and incubated for in a cell culture incubator (37° C., 5% CO2, 100% relative humidity).
After 24 h, media was aspirated from the cells and 50 μL of the RCL2 lysis buffer (10 mM Tris-HCL pH 7.4, 150 mM NaCl, 0.33% IGEPAL® CA-630) was added to each well and incubated at RT for 1 min. Chilled nuclease free water (50 μL per well) was added and the plates were immediately transferred on ice. After 1 min on ice, plates were frozen at −80° C. overnight.
Preparation of RT-qPCR Reaction Mixture:
An aliquot of 2 μL/well of the cell lysates was transferred using the liquid handler to the Armadillo 384-Well PCR plate containing 8 μL/well of the RT-qPCR reaction mixture that was prepared as detailed above. The plates were then sealed with MicroAmp™ Optical Adhesive Film followed by spinning down for 1 min and placed in the CFX384 thermocycler (BioRad).
The RT-qPCR was carried out at the following temperatures for the indicated time: • Step 1: 48° C. (30 min) • Step 2: 95° C. (10 min) • Step 3: 95° C. (15 sec) • Step 4: 60° C. (1 min); then, repeated Steps 3 and 4 for a total of 40 cycles.
The percent exon 4 skipping was calculated for each dose of compound treatment using Equations 1 and 2.
Data were fit to a dose response curve and the IC50 was interpolated using XLfit® statistical and curve fitting package.
as §2
(Quantitative PCR measures a nucleic acid by following its amplification.)

`COC(=O)CNc1cc(Cl)nc2c(Br)c([C@H]3CC=CC[C@@H]3N)sc12` [Compound 366, methyl (2-((1S,6S)-6-aminocyclohex-3-en-1-yl)-3-bromo-5-chlorothieno[3,2-b]pyridin-7-yl)glycinate]: the IC50 in test [1] and in test [2] was 30 to 300 nM in each case.
Consider `N[C@H]1CCCO[C@@H]1c1sc2c(NCc3ccccc3)nc(Cl)nc2c1Br` [Compound 69, 6-((2S,3S)-3-aminotetrahydro-2H-pyran-2-yl)-N-benzyl-7-bromo-2-chlorothieno[3,2-d]pyrimidin-4-amine], for which the IC50 was 30 to 300 nM in test [1] and at most 30 nM in test [2].
Taken in the same sequence, the figures for `Cc1c([C@H]2CC=CC[C@@H]2N)sc2c(NCc3cccs3)nc(Cl)nc12` [Compound 268, 6-((1S,6S)-6-aminocyclohex-3-en-1-yl)-2-chloro-7-methyl-N-(thiophen-2-ylmethyl)thieno[3,2-d]pyrimidin-4-amine] were 30 to 300 nM and 30 to 300 nM.
Taken in the same sequence, the figures for `Cc1c([C@H]2CCCC[C@@H]2N)sc2c(NCc3ccccc3)cc(Cl)nc12` [Compound 280, 2-((1S,2S)-2-aminocyclohexyl)-N-benzyl-5-chloro-3-methylthieno[3,2-b]pyridin-7-amine] were 30 to 300 nM and 30 to 300 nM.
Taken in the same sequence, the figures for `N[C@H]1[C@H](O)CCC[C@@H]1c1sc2c(NCc3cccs3)cc(Cl)nc2c1Cl` [Compound 298, (1R,2R,3S)-2-amino-3-(3,5-dichloro-7-((thiophen-2-ylmethyl)amino)thieno[3,2-b]pyridin-2-yl)cyclohexan-1-ol] were 30 to 300 nM and 30 to 300 nM.
With `N[C@H]1CCCC[C@@H]1c1sc2c(NCc3cccs3)cc(Cl)nc2c1Cl` (single isomer, unassigned) [Compound 34, 2-((1S,2S)-2-aminocyclohexyl)-3,5-dichloro-N-(thiophen-2-ylmethyl)thieno[3,2-b]pyridin-7-amine or 2-((1R,2R)-2-aminocyclohexyl)-3,5-dichloro-N-(thiophen-2-ylmethyl)thieno[3,2-b]pyridine-7-amine], the IC50 in test [1] and in test [2] was at most 30 nM each time.
As for `Cc1c([C@H]2CC=CC[C@@H]2N)sc2c(NCc3ccco3)cc(Cl)nc12` [Compound 184, 2-((1S,6S)-6-aminocyclohex-3-en-1-yl)-5-chloro-N-(furan-2-ylmethyl)-3-methylthieno[3,2-b]pyridin-7-amine], the IC50 in test [1] and in test [2] was at most 30 nM each time.
On to `Cc1c([C@@H]2CCCCCC[C@H]2N)sc2c(NCc3cccs3)cc(Cl)nc12` [Compound 92, 2-((1R,2R)-2-aminocyclooctyl)-5-chloro-3-methyl-N-(thiophen-2-ylmethyl)thieno[3,2-b]pyridin-7-amine], for which the 50% inhibitory concentration (IC50) in test [1] and in test [2] was above 1000 nM throughout.
On to “2-((1R,6S)-6-amino-2,2-difluorocyclohexyl)-N-(but-2-yn-1-yl)-5-chloro-3-iodothieno[3,2-b]pyridin-7-amine and 2-((1S,6R)-6-amino-2,2-difluorocyclohexyl)-N-(but-2-yn-1-yl)-5-chloro-3-iodothieno[3,2-b]pyridin-7-amine [Compound 383]”, for which the IC50 in test [1] and in test [2] was 30 to 300 nM in each case.
Consider “6-((1R,6R)-6-aminocyclohex-3-en-1-yl-2,2,3,4,5,5-d6)-7-bromo-2-chloro-N-(furan-2-ylmethyl)thieno[3,2-d]pyrimidin-4-amine and 6-((1S,6S)-6-aminocyclohex-3-en-1-yl-2,2,3,4,5,5-d6)-7-bromo-2-chloro-N-(furan-2-ylmethyl)thieno[3,2-d]pyrimidin-4-amine [Compound 200]”, for which the 50% inhibitory concentration (IC50) in test [1] and in test [2] was at most 30 nM in each case.
Take `CCc1c([C@H]2CCCC[C@@H]2N)sc2c(NCc3cccs3)cc(Cl)nc12` (single isomer, unassigned) [Compound 40, 2-((1S,2S)-2-aminocyclohexyl)-5-chloro-3-ethyl-N-(thiophen-2-ylmethyl)thieno[3,2-b]pyridin-7-amine or 2-((1R,2R)-2-aminocyclohexyl)-5-chloro-3-ethyl-N-(thiophen-2-ylmethyl)thieno[3,2-b]pyridin-7-amine]: the IC50 in test [1] and in test [2] was 30 to 300 nM in each case.
Turning to `Cc1c([C@H]2CC=C(C(N)=O)C[C@@H]2N)sc2c(NCc3cccs3)cc(Cl)nc12` [Compound 274, (4S,5S)-5-amino-4-(5-chloro-3-methyl-7-((thiophen-2-ylmethyl)amino)thieno[3,2-b]pyridin-2-yl)cyclohex-1-ene-1-carboxamide], the 50% inhibitory concentration (IC50) in test [1] and in test [2] was 30 to 300 nM each time.
On to `N[C@H]1CCOC[C@@H]1c1sc2c(NCc3cccs3)cc(Cl)nc2c1Cl` [Compound 179, 2-((3R,4S)-4-aminotetrahydro-2H-pyran-3-yl)-3,5-dichloro-N-(thiophen-2-ylmethyl)thieno[3,2-b]pyridin-7-amine], for which the IC50 in test [1] and in test [2] was at most 30 nM in each case.
For `Cc1c([C@H]2CCCCCC[C@@H]2N)sc2c(NCc3cccs3)cc(Cl)nc12` [Compound 94, 2-((1S,2S)-2-aminocyclooctyl)-5-chloro-3-methyl-N-(thiophen-2-ylmethyl)thieno[3,2-b]pyridin-7-amine], the IC50 is 300 to 1000 nM in test [1] and 30 to 300 nM in test [2].
Taken in the same sequence, the figures for `Cc1c([C@H]2CC=C(C(=O)N3CCOCC3)C[C@@H]2N)sc2c(NCc3cccs3)cc(Cl)nc12` [Compound 313, ((4S,5S)-5-amino-4-(5-chloro-3-methyl-7-((thiophen-2-ylmethyl)amino)thieno[3,2-b]pyridin-2-yl)cyclohex-1-en-1-yl)(morpholino)methanone] were 30 to 300 nM and 30 to 300 nM.
Taken in the same sequence, the figures for “6-((2R,3R)-3-aminotetrahydro-2H-pyran-2-yl)-2-chloro-N-(furan-2-ylmethyl)-7-iodothieno[3,2-d]pyrimidin-4-amine and 6-((2S,3S)-3-aminotetrahydro-2H-pyran-2-yl)-2-chloro-N-(furan-2-ylmethyl)-7-iodothieno[3,2-d]pyrimidin-4-amine [Compound 243]” were at most 30 nM and at most 30 nM.
Taken in the same sequence, the figures for `Cc1c([C@@H]2CC=CC[C@H]2N)sc2c(NCc3ccco3)nc(Cl)nc12` [Compound 413, 6-((1R,6R)-6-aminocyclohex-3-en-1-yl)-2-chloro-N-(furan-2-ylmethyl)-7-methylthieno[3,2-d]pyrimidin-4-amine] were 30 to 300 nM and 30 to 300 nM.
Take `Cc1c([C@@H]2OCCC[C@H]2N)sc2c(NCc3ccccc3)nc(Cl)nc12` [Compound 64, 6-((2R,3R)-3-aminotetrahydro-2H-pyran-2-yl)-N-benzyl-2-chloro-7-methylthieno[3,2-d]pyrimidin-4-amine]: the 50% inhibitory concentration (IC50) in test [1] and in test [2] was above 1000 nM each time.

What is called IC50 is the midpoint of a concentration-inhibition curve.
